In US20260083851A1 (AVILAR THERAPEUTICS, INC., priority 2022, published 2026):

Target: T1, ASGP receptor (biotinylated ASGPR) (Homo sapiens, UniProt P07306)
T1 construct: biotin (biotinylated)
T1 sequence (P07306 1-291): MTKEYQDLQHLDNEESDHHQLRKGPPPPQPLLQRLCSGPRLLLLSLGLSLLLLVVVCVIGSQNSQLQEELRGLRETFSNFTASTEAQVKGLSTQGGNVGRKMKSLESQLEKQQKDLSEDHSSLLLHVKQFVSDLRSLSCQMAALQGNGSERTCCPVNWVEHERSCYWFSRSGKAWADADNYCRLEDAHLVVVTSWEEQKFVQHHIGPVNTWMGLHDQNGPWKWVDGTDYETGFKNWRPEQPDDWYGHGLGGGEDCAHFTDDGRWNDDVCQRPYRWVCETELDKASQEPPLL
Format: binding
Settings: SPR, Biacore 8K, 25° C.; Table 1A; read-out: ASGPR KD

Structure (SMILES) | Kd
O=C(O)COc1ccc(CC(=O)NC[C@H]2OC[C@H](Nc3cncc(C(F)(F)F)n3)[C@@H](O)[C@H]2O)cc1 [A1, 2-(4-(2-((((2R,3R,4R,5S)-3,4-dihydroxy-5-((6-(trifluoromethyl)pyrazin-2-yl)amino)tetrahydro-2H-pyran-2-yl)methyl)amino)-2-oxoethyl)phenoxy)acetic acid] | < 10 µM
NCCOCCOCC(=O)NC[C@H]1OC[C@H](Nc2cncc(C(F)(F)F)n2)[C@@H](O)[C@H]1O [A57, 2-(2-(2-aminoethoxy)ethoxy)-N-(((2R,3R,4R,5S)-3,4-dihydroxy-5-((6-(trifluoromethyl)pyrazin-2-yl)amino)tetrahydro-2H-pyran-2-yl)methyl)acetamide] | < 10 µM
O[C@@H]1[C@H](O)[C@@H](Nc2cncc(C(F)(F)F)n2)CO[C@@H]1CNc1cccnc1 [A28, (2R,3R,4R,5S)-2-((pyridin-3-ylamino)methyl)-5-((6-(trifluoromethyl)pyrazin-2-yl)amino)tetrahydro-2H-pyran-3,4-diol] | < 10 µM
O[C@@H]1[C@H](O)[C@@H](Nc2cncc(C(F)(F)F)n2)CO[C@@H]1CN1CCCCCCC1 [A73, (2R,3R,4R,5S)-2-(azocan-1-ylmethyl)-5-((6-(trifluoromethyl)pyrazin-2-yl)amino)tetrahydro-2H-pyran-3,4-diol] | < 10 µM
O=C(O)c1ccc(N2CCC(CN3CCN(C[C@H]4OC[C@H](Nc5cncc(C(F)(F)F)n5)[C@@H](O)[C@H]4O)CC3)CC2)nn1 [A16, 6-(4-((4-(((2R,3R,4R,5S)-3,4-dihydroxy-5-((6-(trifluoromethyl)pyrazin-2-yl)amino)tetrahydro-2H-pyran-2-yl)methyl)piperazin-1-yl)methyl)piperidin-1-yl)pyridazine-3-carboxylic acid] | < 10 µM
O=C(NC[C@H]1OC[C@H](Nc2cncc(C(F)(F)F)n2)[C@@H](O)[C@H]1O)c1nc2ccccc2[nH]1 [A13, N-(((2R,3R,4R,5S)-3,4-dihydroxy-5-((6-(trifluoromethyl)pyrazin-2-yl)amino)tetrahydro-2H-pyran-2-yl)methyl)-1H-benzo[d]imidazole-2-carboxamide] | < 10 µM
O=C(NC[C@H]1OC[C@H](Nc2cncc(C(F)(F)F)n2)[C@@H](O)[C@H]1O)c1cnc2ccccc2c1 [A8, N-(((2R,3R,4R,5S)-3,4-dihydroxy-5-((6-(trifluoromethyl)pyrazin-2-yl)amino)tetrahydro-2H-pyran-2-yl)methyl)quinoline-3-carboxamide] | < 10 µM
O=C(NC[C@H]1OC[C@H](Nc2cncc(C(F)(F)F)n2)[C@@H](O)[C@H]1O)c1cnccn1 [A20, N-(((2R,3R,4R,5S)-3,4-dihydroxy-5-((6-(trifluoromethyl)pyrazin-2-yl)amino)tetrahydro-2H-pyran-2-yl)methyl)pyrazine-2-carboxamide] | < 10 µM
O=C(NC[C@H]1OC[C@H](Nc2cncc(C(F)(F)F)n2)[C@@H](O)[C@H]1O)c1ccc(-c2ccccc2)cn1 [A67, N-(((2R,3R,4R,5S)-3,4-dihydroxy-5-((6-(trifluoromethyl)pyrazin-2-yl)amino)tetrahydro-2H-pyran-2-yl)methyl)-5-phenylpicolinamide] | < 10 µM
O=C(NC[C@H]1OC[C@H](Nc2cncc(C(F)(F)F)n2)[C@@H](O)[C@H]1O)c1ccc2[nH]cnc2c1 [A6, N-(((2R,3R,4R,5S)-3,4-dihydroxy-5-((6-(trifluoromethyl)pyrazin-2-yl)amino)tetrahydro-2H-pyran-2-yl)methyl)-1H-benzo[d]imidazole-5-carboxamide] | < 10 µM
O=C(O)COCCOCC(=O)NC[C@H]1OC[C@H](Nc2nc(C(F)(F)F)ccc2F)[C@@H](O)[C@H]1O [A110, 2-(2-(2-((((2R,3R,4R,5S)-5-((3-fluoro-6-(trifluoromethyl)pyridin-2-yl)amino) 3,4-dihydroxytetrahydro-2H-pyran-2-yl)methyl)amino)-2-oxoethoxy)ethoxy)acetic acid] | < 10 µM
CC(NC[C@H]1OC[C@H](Nc2cncc(C(F)(F)F)n2)[C@@H](O)[C@H]1O)c1ncccn1 (stereo partly drawn) [A55, (2R,3R,4R,5S)-2-(((1-(pyrimidin-2-yl)ethyl)amino)methyl)-5-((6-(trifluoromethyl)pyrazin-2-yl)amino)tetrahydro-2H-pyran-3,4-diol] | < 10 µM
OC[C@H]1O[C@H](Cc2ccccc2)[C@@H](Nc2nccc(C(F)(F)F)n2)[C@@H](O)[C@H]1O [A104] | 10 to 100 µM

Same assay, conditions: SPR, Biacore 8K, 25° C.; Table 1C; read-out: ASGPR KD

Structure (SMILES) | Kd
O[C@@H]1[C@H](O)[C@@H](Nc2cccc(C(F)(F)F)n2)CO[C@@H]1COc1ccccc1 [A243] | < 10 µM
OC[C@H]1O[C@H](c2ccc(N3CCNCC3)cc2)[C@H](Oc2cccc(C(F)(F)F)n2)[C@@H](O)[C@H]1O [A250] | < 10 µM
C[C@H]1O[C@H](c2ccc3c(c2)CNC3)[C@H](Oc2cccc(C(F)(F)F)n2)[C@@H](O)[C@H]1O [A341] | < 10 µM
O[C@@H]1[C@H](O)[C@@H](Nc2cncc(C(F)(F)F)n2)CO[C@@H]1CN1Cc2ccccc2C1 [A231, (2R,3R,4R,5S)-2-(isoindolin-2-ylmethyl)-5-((6-(trifluoromethyl)pyrazin-2-yl)amino)tetrahydro-2H-pyran-3,4-diol] | < 10 µM
O[C@@H]1[C@H](O)[C@@H](Oc2cccc(C(F)(F)F)n2)CO[C@@H]1COc1ccc(Br)cc1 [A238] | < 10 µM
O=C(O)c1cnc(OC[C@H]2OC[C@H](Nc3cncc(C(F)(F)F)n3)[C@@H](O)[C@H]2O)cn1 [A187, 5-(((2R,3R,4R,5S)-3,4-dihydroxy-5-((6-(trifluoromethyl)pyrazin-2-yl)amino)tetrahydro-2H-pyran-2-yl)methoxy)pyrazine-2-carboxylic acid] | < 10 µM
N#Cc1ccc(OC[C@H]2OC[C@H](Nc3cncc(C(F)(F)F)n3)[C@@H](O)[C@H]2O)nn1 [A188, 6-(((2R,3R,4R,5S)-3,4-dihydroxy-5-((6-(trifluoromethyl)pyrazin-2-yl)amino)tetrahydro-2H-pyran-2-yl)methoxy)pyridazine-3-carbonitrile] | < 10 µM
C[C@H]1O[C@@H](c2ncnc3c2ncn3Cc2ccccc2)[C@H](Oc2cccc(C(F)(F)F)n2)[C@@H](O)[C@H]1O [A335] | < 10 µM
O[C@@H]1[C@@H](Nc2cccc(C(F)(F)F)n2)[C@H]2OC[C@](COc3cccnn3)(O2)[C@@H]1O [A295] | < 10 µM
C[C@H]1O[C@H](c2ccc3ccccc3n2)[C@H](Oc2cccc(C(F)(F)F)n2)[C@@H](O)[C@H]1O [A343] | < 10 µM
[O-][n+]1c(O[C@H]2CO[C@H](CSc3ccccc3)[C@H](O)[C@@H]2O)cccc1C(F)(F)F [A312] | < 10 µM
O[C@@H]1[C@H](O)[C@@H](Oc2cccc(C(F)(F)F)n2)CO[C@@H]1COc1ccc(N2CCNCC2)c(F)c1 [A247] | < 10 µM
CC(C)(C)OC(=O)N1CCC2(CC1)CN(C[C@H]1OC[C@H](Oc3cccc(C(F)(F)F)n3)[C@@H](O)[C@H]1O)C2 [A267] | < 10 µM
O=C(O)COCCOCC(=O)NC[C@H]1OC[C@H](Oc2cccc(C(F)(F)F)n2)[C@@H](O)[C@H]1O [A298] | < 10 µM
CC(C)(C)OC(=O)N1CCC(n2cc([C@H]3OC[C@H](Oc4cccc(C(F)(F)F)n4)[C@@H](O)[C@H]3O)nn2)CC1 [A220, tert-butyl 4-(4-((2R,3R,4S,5S)-3,4-dihydroxy-5-((6-(trifluoromethyl)pyridin-2-yl)oxy)tetrahydro-2H-pyran-2-yl)-1H-1,2,3-triazol-1-yl)piperidine-1-carboxylate] | < 10 µM
O[C@@H]1[C@H](O)[C@@H](Oc2cccc(C(F)(F)F)n2)CO[C@@H]1COc1ccccc1 [A234, (2R,3R,4S,5S)-2-(phenoxymethyl)-5-((6-(trifluoromethyl)pyridin-2-yl)oxy)tetrahydro-2H-pyran-3,4-diol] | < 10 µM

Same assay, conditions: SPR, Biacore 8K, 25° C.; Table 1D; read-out: ASGPR KD

Structure (SMILES) | Kd
O=C(O)CCCCC(=O)N1C[C@H](Nc2cncc(C(F)(F)F)n2)[C@@H](O)[C@@H](O)C1 [A408] | < 10 µM
CN1C[C@H](Oc2cccc(C(F)(F)F)n2)[C@@H](O)[C@@H](O)C1 [A403] | 10 to 100 µM
O[C@@H]1[C@H](O)[C@@H](Nc2cncc(C(F)(F)F)n2)CO[C@@H]1COc1cnc(C2CCNCC2)cn1 [A415] | < 10 µM
O=C(CCCCC(=O)N1C[C@H](Nc2cncc(C(F)(F)F)n2)[C@@H](O)[C@@H](O)C1)OCc1ccccc1 [A404] | < 10 µM
O=C(OCc1ccccc1)N1CC(c2ccc(OC[C@H]3OC[C@H](Nc4cncc(C(F)(F)F)n4)[C@@H](O)[C@H]3O)nn2)C1 [A410] | < 10 µM
COC(=O)c1ccc(-c2ccc(C(=O)N3C[C@H](Nc4cncc(C(F)(F)F)n4)[C@@H](O)[C@@H](O)C3)cc2)cc1 [A391] | < 10 µM
OCC1CCN(c2ccc(N3C[C@H](Nc4cncc(C(F)(F)F)n4)[C@@H](O)[C@@H](O)C3)nn2)CC1 [A394] | < 10 µM

Same assay, conditions: SPR, Biacore 8K, 25° C.; Table 1E, numeric bound; read-out: ASGPR KD

Structure (SMILES) | Kd
C[C@H]1O[C@H](CO)[C@H](Oc2cncc(C(F)(F)F)n2)[C@@H](O)[C@H]1O [A436] | > 30 µM

Same assay, conditions: SPR, Biacore 8K, 25° C.; Table 1E; read-out: ASGPR KD

Structure (SMILES) | Kd
C[C@H]1O[C@H](CO)[C@H](Oc2nccc(C(F)(F)F)n2)[C@@H](O)[C@H]1O [A437] | 10 to 100 µM
C[C@H]1O[C@H](COc2ccncn2)[C@H](Oc2cccc(C(F)(F)F)n2)[C@@H](O)[C@H]1O [A446] | < 10 µM
C#Cc1ccc(OC[C@H]2O[C@H](C)[C@H](O)[C@H](O)[C@H]2Oc2cccc(C(F)(F)F)n2)nn1 [A442] | < 10 µM
C[C@H]1O[C@H](COc2cccc(C(F)(F)F)n2)[C@H](Oc2cnccn2)[C@@H](O)[C@H]1O [A450] | < 10 µM
C[C@H]1O[C@H](C2=CC3C4CCC(C4)C3C2=O)[C@H](Oc2cccc(C(F)(F)F)n2)[C@@H](O)[C@H]1O (stereo partly drawn) [A435] | < 10 µM
